Tests used:
Assay type in all cases: cell-based
[1] = molecular target: T1, THRα (Homo sapiens, UniProt P10827); test: Gal4-hybrid reporter gene assay THRα; settings: n ≥ 3; for fold act. THRα: mean, Fig. 8; for EC50: HEK293T, Gal4-hybrid reporter, Inactive = tested 1–300 μM; for EC50 / max. fold activation THRα: mean ± S.E.M.; for max. fold activation THRα: maximum reporter activation vs DMSO (0.1%) treated cells
T1 construct: expressed in transfected cells; host or cells: HEK293T
T1 sequence (P10827 128-410 isoform P10827-2 limits assumed): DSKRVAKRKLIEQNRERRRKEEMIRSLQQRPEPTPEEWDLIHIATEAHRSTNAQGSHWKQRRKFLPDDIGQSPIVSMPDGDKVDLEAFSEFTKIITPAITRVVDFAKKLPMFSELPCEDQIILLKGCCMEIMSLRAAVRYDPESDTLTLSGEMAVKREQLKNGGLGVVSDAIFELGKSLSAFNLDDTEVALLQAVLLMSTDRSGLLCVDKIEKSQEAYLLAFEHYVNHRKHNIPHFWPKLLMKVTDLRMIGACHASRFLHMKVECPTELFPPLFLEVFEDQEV
Procedure: (§1) NR modulation was determined as described previously[45] in Gal4 hybrid reporter gene assays in HEK293T cells (German Collection of Microorganisms and Cell Culture GmbH, DSMZ) using pFR-Luc (Stratagene, La Jolla, CA, USA; reporter), pRL-SV40 (Promega, Madison, WI, USA; internal control) and the hybrid receptor clones pFA-CMV-hTHRα-LBD,[46] pFA-CMV-hPPARγ-LBD,[47] pFA-CMV-hFXR-LBD,[48] and pFA-CMV-hRXRα-LBD,[49] coding for the hinge region and ligand binding domain of the canonical isoform of the respective NR. Cells were cultured in Dulbecco's modified Eagle's medium (DMEM), high glucose supplemented with 10% fetal calf serum (FCS), sodium pyruvate (1 mM), penicillin (100 U mL^−1), and streptomycin (100 μg mL^−1) at 37 °C and 5% CO2 and seeded in 96-well plates (3 × 10^4 cells per well). After 24 h, medium was changed to Opti-MEM without supplements and cells were transiently transfected using Lipofectamine LTX reagent (Invitrogen, Carlsbad, CA, USA) according to the manufacturer's protocol. Five hours after transfection, cells were incubated with the test compounds in Opti-MEM supplemented with penicillin (100 U mL^−1), streptomycin (100 μg mL^−1) and 0.1% DMSO for 16 h before luciferase activity was measured using the Dual-Glo Luciferase Assay System (Promega) according to the manufacturer's protocol on a Tecan Spark luminometer (Tecan Deutschland GmbH, Crailsheim, Germany). Firefly luminescence was divided by Renilla luminescence and multiplied by 1000 resulting in relative light units (RLU) to normalize for transfection efficiency and cell growth. Fold activation was obtained by dividing the mean RLU of test compound by the mean RLU of the untreated control. All samples were tested in at least three biologically independent experiments in duplicates. For dose–response curve fitting and calculation of EC50 values, the equation “[agonist] vs. response − variable slope (four parameters)” was used in GraphPad Prism (version 7.00, GraphPad Software, La Jolla, CA, USA). For selectivity profiling, the hybrid reporter gene assay was performed with Gal4 fusion receptor plasmids for RARα, PPARα, PPARδ, VDR, CAR and LXRα. The following reference agonists were used: triiodothyronine (1 μM, THR), all-trans retinoic acid (1 μM, RAR), GW7647 (1 μM, PPARα), pioglitazone (1 μM, PPARγ), L165041 (1 μM, PPARδ), calcitriol (1 μM, VDR), CITCO (1 μM, CAR), T0901317 (1 μM, LXR), GW4064 (1 μM, FXR), bexarotene (1 μM, RXR).

[2] = system: CAR; test: Gal4-hybrid reporter gene assay CAR (selectivity); settings: mean, n ≥ 3, Fig. 8
Procedure: as §1

[3] = molecular target: T2, PPARα (Homo sapiens, UniProt Q07869); test: Gal4-hybrid reporter gene assay PPARα (selectivity); settings: mean, n ≥ 3, Fig. 8
T2 construct: expressed in transfected cells; host or cells: HEK293T
T2 sequence (Q07869 167-468 limits assumed): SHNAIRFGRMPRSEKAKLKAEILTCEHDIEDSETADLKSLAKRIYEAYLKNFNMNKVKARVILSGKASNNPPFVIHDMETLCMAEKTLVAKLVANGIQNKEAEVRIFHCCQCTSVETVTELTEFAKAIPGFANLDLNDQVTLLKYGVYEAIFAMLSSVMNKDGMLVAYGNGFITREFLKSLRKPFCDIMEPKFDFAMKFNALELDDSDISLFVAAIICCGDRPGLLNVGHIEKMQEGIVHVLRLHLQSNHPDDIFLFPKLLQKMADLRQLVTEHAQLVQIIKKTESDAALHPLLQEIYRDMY
Procedure: as §1

[4] = molecular target: T3, PPARδ (Homo sapiens, UniProt Q03181); test: Gal4-hybrid reporter gene assay PPARδ (selectivity); settings: mean, n ≥ 3, Fig. 8
T3 construct: expressed in transfected cells; host or cells: HEK293T
T3 sequence (Q03181 138-441 limits assumed): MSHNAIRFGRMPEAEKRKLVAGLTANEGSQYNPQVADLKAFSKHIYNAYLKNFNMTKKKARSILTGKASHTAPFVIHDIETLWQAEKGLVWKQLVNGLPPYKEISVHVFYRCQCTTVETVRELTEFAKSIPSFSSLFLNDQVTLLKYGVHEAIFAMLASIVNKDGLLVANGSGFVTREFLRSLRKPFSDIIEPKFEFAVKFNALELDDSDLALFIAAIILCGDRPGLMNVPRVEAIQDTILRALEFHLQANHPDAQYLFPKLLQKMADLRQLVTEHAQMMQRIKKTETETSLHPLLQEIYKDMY
Procedure: as §1

[5] = molecular target: T4, LXRα (Homo sapiens, UniProt Q13133); test: Gal4-hybrid reporter gene assay LXRα (selectivity); settings: mean, n ≥ 3, Fig. 8
T4 construct: expressed in transfected cells; host or cells: HEK293T
T4 sequence (Q13133 171-447 limits assumed): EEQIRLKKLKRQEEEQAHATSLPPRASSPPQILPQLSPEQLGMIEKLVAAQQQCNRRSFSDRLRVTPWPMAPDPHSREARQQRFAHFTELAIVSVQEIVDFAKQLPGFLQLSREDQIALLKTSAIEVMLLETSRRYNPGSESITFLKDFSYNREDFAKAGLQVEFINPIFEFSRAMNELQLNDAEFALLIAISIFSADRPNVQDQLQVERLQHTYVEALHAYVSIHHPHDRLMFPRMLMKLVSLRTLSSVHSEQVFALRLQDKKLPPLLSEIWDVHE
Procedure: as §1

fold act. THRα ([1]; 10 μM) [fold]	EC50 [1] [µM]	max. fold activation THRα [1]	fold act. PPARα ([3]; 10 μM) [fold]	fold act. PPARδ ([4]; 10 μM) [fold]	fold act. LXR ([5]; 10 μM) [fold]	fold act. THRα ([1]; 30 μM) [fold]	fold act. PPARα ([3]; 30 μM) [fold]	fold act. PPARδ ([4]; 30 μM) [fold]	fold act. LXR ([5]; 30 μM) [fold]	fold act. THRα ([1]; 40 μM) [fold]	fold act. PPARα ([3]; 40 μM) [fold]	fold act. PPARδ ([4]; 40 μM) [fold]	fold act. LXR ([5]; 40 μM) [fold]	Compound	fold act. CAR ([2]; 10 μM) [fold]	fold act. CAR ([2]; 30 μM) [fold]	fold act. CAR ([2]; 40 μM) [fold]
4	1.5 ± 0.2	(3.7 ± 0.2-fold)	5	2	3									CCOc1ccc(-c2cc(C(=O)O)co2)cc1 [3.1, 5-(4-Ethoxyphenyl)furan-3-carboxylic acid]	3		
	43 ± 3	(4.2 ± 0.3-fold)				2	1	1	1					O=C(O)/C=C/C(=O)c1ccc(Cl)cc1Cl [4.6, (E)-4-Oxo-4-(2,4-dichlorophenyl)but-2-enoic acid]		1	
	16 ± 7	(14.8 ± 1.0-fold)				15	6	3	1					O=C(O)/C=C/C(=O)c1ccc(-c2ccccc2)cc1 [4.7, (E)-4-([1,1′-Biphenyl]-4-yl)-4-oxobut-2-enoic acid]		2	
	39 ± 1	(28 ± 1-fold)								16	7	3	3	O=C(O)/C=C/C(=O)c1ccc2ccccc2c1 [4.8, (E)-4-Oxo-4-(naphthalen-2-yl)but-2-enoic acid]			3
